How the values were obtained:
Bevacizumab [1] = target: T1, Bevacizumab (Homo sapiens, UniProt P01857); experiment: Microtiter plate chromatography of resins: binding and elution of Bevacizumab; details: for Bevacizumab Bound: fraction of injected protein bound, 0.5 mg/ml IgG in PBS pH 7.3, ligand immobilized on SEPHAROSE 4 FF; for Bevacizumab Yield: mass eluted (glycine pH 2.5) / mass injected
T1 construct: 0.5 mg/ml IgG in PBS pH 7.3; ligand immobilized on SEPHAR; Bevacizumab Yield; other: mass eluted (glycine pH 2.5) / mass injected; kd (dissociation constant, Langmuir isotherm); other: Bevacizumab 0.05-5 mg/ml in PBS pH 7.3, 25° C., at least 3 h; qm (maximum capacity); other: mg Bevacizumab per ml of resin; Langmuir isotherm; t0; fused on or other part: Humanized anti-VEGF-A VH domain joined N-terminally to the IGHG1 constant region (engineered, no UniProt entry)
Method in brief: (§1)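 About 30 μl packed resin columns loaded with 3.3 cv IgG at 0.5 mg ml^−1 in PBS or undiluted HCP, washed with 5 cv PBS, eluted with 5 cv glycine pH 2.5. Protein in fractions by Bradford. Bound fraction = (injected − flowthrough)/injected; yield = eluted/injected; selectivity = Bevacizumab bound fraction / HCP bound fraction, truncated beyond 10.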

Tocilizumab = experiment: Microtiter plate chromatography of resins: binding and elution of Tocilizumab; details: fraction of injected protein bound; 0.5 mg/ml IgG in PBS pH 7.3
Method in brief: (§2)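 About 30 μl resin columns loaded with 3.3 cv IgG at 0.5 mg ml^−1 in PBS (or undiluted HCP), washed with 5 cv PBS, eluted with 5 cv glycine pH 2.5. Fractions quantified by Bradford; bound fraction = (mi−mft)/mi, yield = me/mi.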

Palivizumab = experiment: Microtiter plate chromatography of resins: binding and elution of Palivizumab; details: fraction of injected protein bound; 0.5 mg/ml IgG in PBS pH 7.3
Method in brief: as §2

Cetuximab = experiment: Microtiter plate chromatography of resins: binding and elution of Cetuximab; details: fraction of injected protein bound; 0.5 mg/ml IgG in PBS pH 7.3
Method in brief: as §2

[2] = system: poly-IgG from human serum (h-poly-IgG); experiment: Microtiter plate chromatography of resins: binding and elution of human poly-IgG; details: fraction of injected protein bound; 0.5 mg/ml IgG in PBS pH 7.3
Method in brief: as §2

host cell proteins (HCP) = experiment: Microtiter plate chromatography of resins: binding of host cell proteins; set-up: species or system CHO cell culture; details: fraction of injected undiluted host cell proteins bound
Method in brief: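 Undiluted HCP-containing flowthrough from protein A chromatography of CHO serum-free culture was loaded onto ~30 µl packed resin columns in microtiter-plate format. Columns were washed with 5 cv PBS and eluted with glycine pH 2.5, and fractions were quantified by Bradford. Bound fraction = (injected − flowthrough mass)/injected mass.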

Bevacizumab [3] = target: T1, Bevacizumab; experiment: Langmuir isotherms by batch adsorption; assay type: binding; details: for Kd: Bevacizumab 0.05-5 mg/ml in PBS pH 7.3, 25° C., at least 3 h, read-out: kd (dissociation constant, Langmuir isotherm) (converted); for qm (maximum capacity): mg Bevacizumab per ml of resin, Langmuir isotherm
Procedure: Experiments were performed with Bevacizumab as antibody. Parameters of Langmuir isotherms for purified antibody were determined by batch adsorption experiments in 96-well microtiter plates. In each well, 10 μl of sorbent slurry (50% v/v) were mixed with 100 μl of protein solution. Initial concentrations varied from 0.05-5 mg/ml in phosphate-buffered saline (0.15 M NaCl, 20 mM phosphate buffer, pH 7.3; PBS). Reactions were agitated vigorously at 25° C. for at least 3 h. Afterwards, antibody concentration in the supernatants were measured by Bradford assay. Data was evaluated by direct fitting of the values with the Langmuir isotherm equation (1).
Parameters of Langmuir isotherms, i.e. dissociation constants Kd and maximum capacities qm, were determined from the measured concentrations in the supernatants. Parameters were estimated by numerical fitting of the model equation derived by Chase (1)

Bevacizumab [4] = target: T1, Bevacizumab; experiment: Uptake kinetics by batch adsorption (time-scale of binding); details: time after which 80% of equilibrium saturation occurred; 0.75 mg/ml Bevacizumab in PBS, 25° C.
Procedure: Uptake kinetics was investigated similarly by batch adsorption in 96-well filter plates. Again, 10 μl of sorbent slurry (50% v/v) were mixed with 100 μl of protein solution. […] Reactions were agitated vigorously at 25° C. for up to 80 min. Supernatants were separated rapidly by spinning through filters after 2.5, 5, 10, 20, 40 and 80 minutes and sampled for analysis. Concentrations of the antibody were analyzed by Bradford assay.
For determination of t0.8, measured concentrations in the supernatant were interpolated by fitting of double-exponentials and values of t0.8 were read out from graphs (2).

[5] = Alkaline stability of ligands in 0.5 M sodium hydroxide; assay type: physicochemical; details: 25° C., 8 days, hydrolysis monitored by LC-MS, read-out: t0.5 (half-life) (converted)
Procedure: A subset of ligands from Example 1 was tested for its alkaline stability. Ligands were treated with 0.5 M sodium hydroxide at 25° C. for 8 days. Hydrolysis was monitored by LC-MS analysis.

Bevacizumab [6] = experiment: Microtiter plate chromatography of resins: binding and elution of Bevacizumab; details: fraction of bound Bevacizumab divided by fraction of bound HCP; truncated for values beyond 10
Method in brief: as §1

| SMILES | Bevacizumab Bound (Bevacizumab [1]) [%] | Bevacizumab Yield (Bevacizumab [1]) [%] | Tocilizumab Bound (Tocilizumab) [%] | Palivizumab Bound (Palivizumab) [%] | Cetuximab Bound (Cetuximab) [%] | h-poly-IgG Bound [2] [%] | Kd (Bevacizumab [3]) [µM] | qm (maximum capacity) (Bevacizumab [3]) [mg/mL] | t0.8 (time-scale of binding) (Bevacizumab [4]) [min] | half-life [5] [days] | HCP Bound (host cell proteins (HCP)) [%] | Selectivity (Bevacizumab [6]) |
| --- | --- | --- | --- | --- | --- | --- | --- | --- | --- | --- | --- | --- |
| NCCCn1cnc2cc(C(=O)Nc3nc(-c4ccncc4)cs3)ccc21 [Ligand L47, 1-(3-Amino-1-propyl)benzimidazole-5-carboxylic acid N-[4-(4-pyridyl)thiazol-2-yl] amide] | 100 | 100 | 99 | 98 | 100 | 100 | 169 | 43 | 5.6 | > 41.6 | 13 |  |
| Cc1nc2cc(C(=O)Nc3nc(-c4ccccn4)cs3)ccc2n1CCCN [Ligand L42, 1-(3-Amino-1-propyl)-2-methylbenzimidazole-5-carboxylic acid N-[4-(2-pyridyl)thiazol-2-yl] amide] | 100 | 98 | 100 | 97 | 100 | 100 | 318 | 45 | 7.6 | > 41.6 | 13.5 |  |
| Cc1nsc(NC(=O)c2ccc3c(c2)ncn3CCCN)n1 [Ligand L36, 1-(3-Amino-1-propyl)benzimidazole-5-carboxylic acid N-(3-methyl-1,2,4-thiadiazol-5-yl) amide] | 100 | 104 | 90 | 93 | 99 | 81 | 740 | 35 |  | > 41.6 | 9 |  |
| COc1ccc(NC(=O)c2nn(CCCN)c3ccccc23)cc1C(N)=O [Ligand L04, 1-(3-Amino-1-propyl)indazole-3-carboxylic acid N-(3-carbamoyl-4-methoxyphenyl) amide] | 100 | 98 | 100 | 85 | 100 | 100 |  |  |  | > 41.6 | 28 | 3.6 |
| Cn1nc(NC(=O)c2ccc3c(c2)ncn3CCCN)c2ccccc21 [Ligand L02, 1-(3-Amino-1-propyl)benzimidazole-5-carboxylic acid N-(1-methyl-3-indazolyl) amide] | 100 | 101 | 100 | 91 | 100 | 100 | 324 | 41 |  | > 41.6 | 28 |  |

Further lines, with some results ahead:

| Bevacizumab Bound (Bevacizumab [1]) [%] | Bevacizumab Yield (Bevacizumab [1]) [%] | Tocilizumab Bound (Tocilizumab) [%] | Palivizumab Bound (Palivizumab) [%] | Cetuximab Bound (Cetuximab) [%] | h-poly-IgG Bound [2] [%] | Kd (Bevacizumab [3]) [µM] | qm (maximum capacity) (Bevacizumab [3]) [mg/mL] | t0.8 (time-scale of binding) (Bevacizumab [4]) [min] | half-life [5] [days] | SMILES | HCP Bound (host cell proteins (HCP)) [%] | Selectivity (Bevacizumab [6]) |
| --- | --- | --- | --- | --- | --- | --- | --- | --- | --- | --- | --- | --- |
| 100 | 98 | 100 | 99 | 100 | 98 | 578 | 42 | 8.9 | > 41.6 | NCCCNc1ccc(C(=O)Nc2nnc(-c3ccco3)s2)cn1 [Ligand L19, 6-[(3-Amino-1-propyl)amino]nicotinic acid N-[5-(2-furyl)-1,3,4-thiadiazol-2-yl]amide] | 14 |  |
| 100 | 103 | 100 | 98 | 100 | 100 | 185 | 48 | 6.0 | 30 | NCCCn1cnc2cc(C(=O)Nc3nc(-c4cccnc4)cs3)ccc21 [Ligand L46, 1-(3-Amino-1-propyl)benzimidazole-5-carboxylic acid N-[4-(3-pyridyl)thiazol-2-yl] amide] | 17 |  |
| 100 | 101 | 100 | 100 | 100 | 100 | 583 | 42 | 9.4 | > 41.6 | NCCCn1c(=O)[nH]c2cc(C(=O)Nc3nnc(-c4ccco4)s3)ccc21 [Ligand L24, 1-(3-Amino-1-propyl)-2-oxo-2,3-dihydrobenzimidazole-5-carboxylic acid N-[5-(2-furyl)-1,3,4-thiadiazol-2-yl] amide] | 12 |  |
| 100 | 100 | 100 | 89 | 100 | 92 | 212 | 35 |  | > 41.6 | Cc1nnc(NC(=O)c2ccc3c(c2)ncn3CCCN)s1 [Ligand L14, 1-(3-Amino-1-propyl)benzimidazole-5-carboxylic acid N-(2-methyl-1,3,4-thiadiazol-5-yl) amide] | 16 |  |
| 100 | 93 | 100 | 90 | 100 | 94 | 200 | 38 | 8.8 | > 41.6 | CCc1nnc(NC(=O)c2ccc3c(c2)ncn3CCCN)s1 [Ligand L07, 1-(3-Amino-1-propyl)benzimidazole-5-carboxylic acid N-(2-ethyl-1,3,4-thiadiazol-5-yl) amide] | 23 |  |
| 100 | 88 | 100 | 100 | 100 | 100 | 265 | 53 | 7.7 | > 41.6 | CCc1nc2cc(C(=O)Nc3nnc(-c4ccco4)s3)ccc2n1CCCN [Ligand L44, 1-(3-Amino-1-propyl)-2-ethylbenzimidazole-5-carboxylic acid N-[5-(2-furyl)-1,3,4-thiadiazol-2-yl] amide] | 16 |  |
| 100 | 93 | 100 | 100 | 100 | 100 |  |  |  | > 41.6 | COc1nc2cc(C(=O)Nc3nnc(-c4ccco4)s3)ccc2n1CCCN [Ligand L45, 1-(3-Amino-1-propyl)-2-methoxybenzimidazole-5-carboxylic acid N-[5-(2-furyl)-1,3,4-thiadiazol-2-yl] amide] | 15 | 6.7 |

— patent US9745339B2 (GRAFFINITY PHARMACEUTICALS GMBH, priority 2012, dated 2017)
